Experimental data taken from patent EP0219491B1, “OXINDOLE ALKALOIDS WITH PROPERTIES STIMULATING THE IMMUNITY SYSTEM AND PREPARATIONS CONTAINING THEM” (KEPLINGER, Klaus, priority 1984, dated 1986).

Key:
[1] = tested on: Granulozytenfraktion (PMNL-Fraktion); test: Granulocyte test modified after BRANDT (phagocytosis of yeast cells by PMNL); assay type: cell-based, menschlichen Blut; conditions: for Wirksamkeit im Granulozytentest: summary in words
From the text: Neutrophile Granulozyten sind zusammen mit Makrophagen die wichtigsten Effektorzellen der Phagozytose und nehmen damit eine wichtige Stellung in der Infektabwehr ein. Sie stellen etwa 60-70% aller weissen Blutkörperchen im menschlichen Blut dar. Der Phagozytoseleistung dieser Granulozyten lässt sich in vitro nach einer von BRANDT (Scand. J. Haematol. Suppl 2, 1967) entwickelten und vonTYMPNER (Münchn. Med. WSchr. 8, 251, 1978) modifizierten Methodik messen.
Dabei wird aus dem Blut gesunder Probanden eine Granulozytenfraktion (PMNL-Fraktion) gewonnen.
Diese PMNL-Fraktion besteht hauptsächlich aus neutrophilen Granulozyten neben wenig eosinophilen und basophilen Granulozyten sowie Lymphozyten, Monozyten und Thrombozyten. Nach Zusatz einer definierten Menge von Hefezellen (Saccharomyces cerevisiae) und der zu testenden Substanz wird zunächst 10 min bei 37° C inkubiert, die Aufschwemmung auf einem Objektträger ausgestrichen und weitere 35 min bei Raumtemperatur inkubiert. Anschliessend werden die Ausstriche angefärbt und mikroskopisch ausgewertet. Pro Objektträger werden 100 PMNL-Zellen ausgewählt und bestimmt, wieviele Hefepartikel von den einzelnen Zellen phagozytiert wurden. Der Phagozytoseindex (PJ) gibt die durchschnittliche Anzahl von phagozytierten Hefepartikeln pro Granulocyt an. Die Steigerung (S) der Phagozytoseaktivität im Blindwert wurde berechnet nach: [formula]

[2] = tested on: Granulozyten; test: Chemiluminescence test (CL), respiratory burst of phagocytes activated with opsonised Zymosan; assay type: cell-based
From the text: Obwohl der Granulozytentest nach BRANDT eine zuverlässige Methode zur Ermittlung phagozytosesteigernder Eigenschaften von Substanzen und Extrakten darstellt, ist er sehr zeit- und personalaufwendig. Eine Alternative bietet die neue Methode der Chemilumineszenzmessung phagozytierender Zellen.
Seitdem ALLEN et al. (Biochem. Biophys. Res. Commun, 47,129,1972) als erste die Lichtemission von neutrophilen Granulozyten während der Phagozytose von Latexpartikeln und verschiedener Bakterien entdeckten und NELSON et al. (Infect. Immun 14,129,1976) und WEIDEMANN et al. (FEBS Letters 89,136,1978) CL-Erscheinungen an phagozytierenden Blutmakrophagen (Monozyten) nachweisen konnten, wird diese Reaktion auch in der experimentellen und klinischen Immunologie angewendet. Der genaue Mechanismus der dabei ablaufenden Reaktion konnte allerdings bis heute noch nicht vollständig aufgeklärt werden. Zusammenfassend lässt sich die bei aktivierten Phagozyten auftretende CL folgendermassen darstellen: der Kontakt dieser Zellen mit Bakterien, Viren oder anderem körperfremden Material, z.B. auch chemische Substanzen, führt zunächst zu einer gesteigerten Sauerstoffaufnahme. Anschliessend werden in der Zelle aus dem molekularen Sauerstoff Superoxid-Anion-Radikale O2^- gebildet, die sich dann entweder spontan oder enzymatisch katalysiert in andere aktivierte Sauerstoffmoleküle, wie Wasserstoffperoxid (H202), Singulett-Sauerstoff (^1O2), Hydroxylradikale (OH) und Hypochlorit-Anionen (OCI-) umwandeln. Dieser Vorgang wird «respiratory burst» genannt.
Durch die Freisetzung der aktivierten Sauerstoffmoleküle in die unmittelbare Umgebung der phagozytierenden Zelle, wie auch in die phagozytische Vakuole selbst und durch die Aktivierung lysosomaler Enzyme können eingedrungene Mikroorganismen oder Tumorzellen geschädigt oder getötet werden. Auch andere Moleküle sind daran beteiligt, so z.B. sogenannte kationische Proteine .und Laktoferrin. Die Zellwände der Mikroorganismen werden durch Oxidation oder Reduktion angegriffen und teilweise zerstört. Als Nebeneffekt tritt dabei CL auf, da das Zellwandmaterial als chemilumineszierendes Substrat für die aktivierten Sauerstoffmoleküle dient.
Die geringe Lichtausbeute solcher CL-Reaktionen phagozytierender Zellen wird im in-vitro-Experiment durch den Zusatz von Substanzen erhöht, die durch aktivierten Sauerstoff oxidiert werden und dabei Licht bestimmter Wellenlänge erzeugen, welches physikalisch gemessen werden kann. Als Substrate eignen sich dabei Luminol (5-Amino-2,3-dihydro-1,4-phthalazindion) und Lucigenin (10,10'-Dimethyl-9,9'-biacridiniumdini- trat), welche die CL-Antwort um das 10^3fache steigern.
Durch den Einsatz empfindlicher Messgeräte, in denen die Photonenzählung mit Hilfe von Photomultipliern erfolgt, lässt sich die durch die oben genannten Substanzen verstärkte CL messen. Es wurde ein 6-Kanal-CL-Gerät Biolumat^@ LB 9505 der Fa. Berthold benutzt, das sechs Testungen zur gleichen Zeit ermöglicht. Darüberhinaus erlaubte es das verwendete Gerät auch, die CL-Antwort zeitabhängig zu registrieren. So konnten den Dosis-Wirkungs- Kurven als dritte Dimension die zeitabhängige Wirkung hinzugefügt werden.
Zur in-vitro-Untersuchung des phagozytosesteigenden Wirkung von Substanzen können entweder gereinigte Zellpopulationen von Granulozyten oder Makrophagen verwendet werden, oder die Messung erfolgt direkt in verdünntem Vollblut.
Die Aktivierung der Phagozyten erfolgt dabei durch feste Partikel, z.B. opsonierte Bakterien, Zy- mosan^@ und Latexpartikel, oder durch bestimmte gelöste Substanzen. Bekannte Aktivatoren sind z.B. verschiedene lonophoren und Fluorid-lonen.
• a) Vollblut: 460 µl Veronal®-gepufferte Kochsalzlösung • 200 µl verdünntes Vollblut • 100 pl Lucigenin-Lösung • 200 µl in PBS (phosphat-gepufferte Kochsalzlösung) gelöste Substanz bzw. PBS als Kontrolle • b) PMNL: 630 µl Veronal@-gepufferte Kochsalzlösung • 15 µl PMNL • 100 µl Lucigenin-Lösung 200 µl in PBS gelöste Substanz bzw. PBS als Kontrolle […]

[3] = tested on: Asciteszellen von Walker-250-Carcinosarkomen von Ratten; test: Cytotoxicity by 3H-thymidine incorporation test on ascites cells; assay type: cell-based; conditions: Walker 256; 2 mg/ml; read-out: Mittelwert der Methotrexat-Hemmung
From the text: Da im Granulozytentest einige Substanzen in hoher Konzentration die Granulozyten lysierten, wurde auch die zellschädigende Wirkung am Modell des 3H-Thymidineinbautests in Asciteszellen geprüft, um eine mögliche Beziehung zwischen Phagozytosesteigerung und Cytotoxizität auffinden zu können.
In diesem in-vitro-Testsystem nach WEITZEL et al (Hoppe-Seyler's Z. Physiorog. Chem. 348, 433, 1967) kann die Cytotoxizität von Substanzen durch Hemmung der DNA-Synthese von Tumorzellen zahlenmässig durch die veränderten Einbauraten von ^3H-Tymidin in Asciteszellen von […] von Ratten erfasst werden.
Die Ergebnisse wurden mit der Kontrolle verglichen und die Hemmeffekte in Prozent ausgedrückt. Relativierung der Testergebnisse Da die prozentuale Einbauhemmung bei gleichen Substanzen Schwankungen bis zu 30% zwischen einzelnen Versuchen zeigte, wurde Methotrexat®, welches als Folsäureantagonist die DNA-Synthese hemmt, als Bezugssubstanz in jeder Versuchsreihe mitgetestet. Der Mittelwert der Methotrexat®-Hemmung (43% bei 2 mg/ml) wurde zur Ermittlung der relativen Hemmung H der Substanzen herangezogen.

[4] = tested on: Makrophagen-Phagozytose; test: In vitro macrophage phagocytosis; assay type: cell-based; conditions: Konzentrationen von 10-^4% und 10-^5%

Compound | Wirkung im Granulozytentest ([1]; tested up to 10^-4%) | prozentuelle Phagozytosesteigerung ([1]; Konzentration 10^-2 (in %)) | prozentuelle Phagozytosesteigerung ([1]; Konzentration 10^-3 (in %)) | prozentuelle Phagozytosesteigerung ([1]; Konzentration 10^-4 (in %)) | prozentuelle Phagozytosesteigerung ([1]; Konzentration 10^-5 (in %)) | Wirksamkeit im Granulozytentest [1] | also measured
Thalifaberin [reference compound] | Negativ | – | – | – | – | – | –
COC(=O)C1=CO[C@@H](C)[C@@H]2CN3CC[C@@]4(C(=O)Nc5ccccc54)[C@@H]3C[C@H]12 [Isopteropodin, allo-Isopteropodin] | – | 23,4% | 48,7% | 55,0% | 38,2% | wirksamen | prozentuelle Steigerung der CL-Antwort ([2]; Konzentration 10^-3 %): 67,2%; prozentuelle Steigerung der CL-Antwort ([2]; Konzentration 10^-4 %): 66,0%; prozentuelle Steigerung der CL-Antwort ([2]; Konzentration 10^-5 %): 55,7%; prozentuelle Steigerung der CL-Antwort ([2]; Konzentration 10^-6 %): 68,1%; prozentuelle Steigerung der CL-Antwort ([2]; Konzentration 10^-7 %): 55,3%; prozentuelle Steigerung der CL-Antwort ([2]; Konzentration 10^-8 %): 31,2%; prozentuelle Phagozytosesteigerung ([1]; Konzentration 10^-6 (in %)): 28,2%; prozentuelle Phagozytosesteigerung ([1]; Konzentration 10^-7 (in %)): 13,6%
COC(=O)C1=CO[C@@H](C)[C@@H]2CN3CC[C@@]4(C(=O)Nc5ccccc54)[C@H]3C[C@H]12 [Speciophyllin, reference compound] | – | 10,5% | 18,5% | 26,0% | 35,3% | – | –
COc1cccc2c1cc([N+](=O)[O-])c1c(C(=O)O)cc3c(c12)OCO3 [Aristolochiasäure, reference compound] | – | – | – | – | – | – | Steigerung der Phagozytoseaktivität (respiratory burst) ([2]; CL-Test mit isolierten Granulozyten, Na-Salz): dosisabhängige Steigerung der Phagozytoseaktivität
O=c1cccc2n1C[C@@H]1CNC[C@H]2C1 [Cytisin, reference compound] | keine Wirkung | – | – | – | – | – | –
CN(Cc1cnc2nc(N)nc(N)c2n1)c1ccc(C(=O)N[C@@H](CCC(=O)O)C(=O)O)cc1 [Methotrexat] | – | – | – | – | – | – | inhibition at 2000 µg/mL [3]: 43%
Huangshanin [reference compound] | Negativ | – | – | – | – | – | –
COc1ccc2cc3[n+](cc2c1OC)CCc1cc2c(cc1-3)OCO2 [Berberin, reference compound] | unwirksam | – | – | – | – | – | –
C=C[C@]12CN(C)[C@@H]3[C@H]4CO[C@H](C[C@H]41)[C@]1(C(=O)Nc4ccccc41)[C@@H]32 [Gelsemin, reference compound] | – | 22,1% | 40,4% | 33,7% | 8,2% | – | –
CC[C@]1(O)C[C@H]2CN(CCc3c([nH]c4ccccc34)[C@@](C(=O)OC)(c3cc4c(cc3OC)N(C=O)[C@H]3[C@@](O)(C(=O)OC)[C@H](OC(C)=O)[C@]5(CC)C=CCN6CC[C@]43[C@@H]65)C2)C1 [Vincristin, reference compound] | – | – | – | – | – | – | in-vitro-Hemmung der Makrophagen-Phagozytose [4]: in-vitro-Hemmung der Makrophagen-Phagozytose; Wirkung im Granulozytentest ([1]; bis zu Verdünnungen von 10-^6%): keine Wirkungen
COC(=O)C1=CO[C@@H](C)[C@H]2CN3CC[C@@]4(C(=O)Nc5ccccc54)[C@@H]3C[C@H]12 [Isomitraphyllin, normal-Isomitraphyllin] | – | 16,5% | 27,0% | 27,0% | 19,4% | wirksamen | prozentuelle Steigerung der CL-Antwort ([2]; Konzentration 10^-3 %): 15,4%; prozentuelle Steigerung der CL-Antwort ([2]; Konzentration 10^-4 %): 15,7%; prozentuelle Steigerung der CL-Antwort ([2]; Konzentration 10^-5 %): 36,1%; prozentuelle Steigerung der CL-Antwort ([2]; Konzentration 10^-6 %): 46,7%; prozentuelle Steigerung der CL-Antwort ([2]; Konzentration 10^-7 %): 18,6%; prozentuelle Phagozytosesteigerung ([1]; Konzentration 10^-6 (in %)): 5,7%
CC[C@H]1CN2CC[C@]3(C(=O)Nc4ccccc43)[C@@H]2C[C@@H]1/C(=C\OC)C(=O)OC [Rhynchophyllin] | – | – | – | – | – | nicht wirksamen | –
CC[C@H]1CN2CC[C@@]3(C(=O)Nc4ccccc43)[C@@H]2C[C@@H]1/C(=C\OC)C(=O)OC [Isorhynchophyllin] | – | 10,8% | 25,2% | 27,3% | 16,1% | wirksamen | prozentuelle Phagozytosesteigerung ([1]; Konzentration 10^-6 (in %)): 8,8%
Thalifabin [reference compound] | Negativ | – | – | – | – | – | –
COC(=O)C1=CO[C@@H](C)[C@@H]2CN3CC[C@]4(C(=O)Nc5ccccc54)[C@@H]3C[C@H]12 [Pteropodin, allo-Pteropodin] | – | 11,2% | 21,7% | 26,1% | 23,0% | wirksamen | prozentuelle Steigerung der CL-Antwort ([2]; Konzentration 10^-3 %): 10,6%; prozentuelle Steigerung der CL-Antwort ([2]; Konzentration 10^-4 %): 10,0%; prozentuelle Steigerung der CL-Antwort ([2]; Konzentration 10^-5 %): 23,7%; prozentuelle Steigerung der CL-Antwort ([2]; Konzentration 10^-6 %): 15,4%
COC(=O)C1=CO[C@@H](C)[C@H]2CN3CC[C@]4(C(=O)Nc5ccccc54)[C@@H]3C[C@H]12 [Mitraphyllin, normal-Mitraphyllin] | – | – | – | – | – | nicht wirksamen | –
CC[C@@]1(O)C(=O)OCc2c1cc1n(c2=O)Cc2cc3ccccc3nc2-1 [Camotothecin, reference compound] | – | – | – | – | – | – | Wirkung im Granulozytentest ([1]; bis zu Verdünnungen von 10-^6%): keine Wirkungen
C1CCN2C[C@@H]3C[C@@H](CN4CCCC[C@@H]34)[C@H]2C1 [Spartein, reference compound] | keine Wirkung | – | – | – | – | – | –
